Where “and” joins values, the source holds several entries; their conditions need not be identical. Equal values may be shown once. Where a SMILES comes first, the peptide text is derived from it. [ ]: non-standard residue; d: D form. Hyp = O=C(O)[C@@H]1C[C@@H](O)CN1
System: IL-1 alpha
Assay: Example 9 Luminex, LPS hPBMCs: IL-1 alpha
Format: cell-based, human
Conditions: IL-1 alpha, replicates and Mean
Procedure: Treatment Human PBMCs were pretreated with YY-101, YDE-011 and YDE-043 or reference compound; Xiidra® at various concentration (ranging from 1 nM to 100 uM) for 2 h before stimulation. An equal volume of 0.5% DMSO was used as a vehicle control. Then, the cells were treated with LPS at 5 ug/ml. The supernatants from treated cells were harvested at 24 h and placed in a 96 well for Luminex cytokine & chemokine profiling using a Luminex 200 multiplex assay (Luminex; R&D system, USA).
The main study arm with triplicate wells per group in a 24-well plate: • 1. Blank • 2. PBMC: 0.5% DMSO • 3. PBMC+LPS (5 ug/ml) • 4. PBMC+YY-101 100 uM • 5. PBMC+YY-101 10 uM • 6. PBMC+YY-101 1 uM • 7. PBMC+YY-101 0.1 uM • 8. PBMC+YY-101 0.01 uM • 9. PBMC+LPS (5 ug/ml)+Xiidra®100 uM • 10. PBMC+LPS (5 ug/ml)+Xiidra® 10 uM • 11. PBMC+LPS (5 ug/ml)+Xiidra® 1 uM • 12. PBMC+LPS (5 ug/ml)+Xiidra®0.1 uM • 13. PBMC+LPS (5 ug/ml)+Xiidra®0.01 uM • 14. PBMC+LPS (5 ug/ml)+Xiidra®0.001 uM • 15. PBMC+LPS (5 ug/ml)+YY-101 100 uM • 16. PBMC+LPS (5 ug/ml)+YY-101 10 uM • 17. PBMC+LPS (5 ug/ml)+YY-101 1 uM • 18. PBMC+LPS (5 ug/ml)+YY-101 0.1 uM • 19. PBMC+LPS (5 ug/ml)+YY-101 0.01 uM • 20. PBMC+LPS (5 ug/ml)+YY-101 0.001 uM • 21. PBMC+LPS (5 ug/ml)+YDE-011 100 uM • 22. PBMC+LPS (5 ug/ml)+YDE-011 10 uM • 23. PBMC+LPS (5 ug/ml)+YDE-011 1 uM • 24. PBMC+LPS (5 ug/ml)+YDE-011 0.1 uM • 25. PBMC+LPS (5 ug/ml)+YDE-011 0.01 uM • 26. PBMC+LPS (5 ug/ml)+YDE-011 0.001 uM • 27. PBMC+LPS (5 ug/ml)+YDE-043 100 uM • 28. PBMC+LPS (5 ug/ml)+YDE-043 10 uM • 29. PBMC+LPS (5 ug/ml)+YDE-043 1 uM • 30. PBMC+LPS (5 ug/ml)+YDE-043 0.1 uM • 31. PBMC+LPS (5 ug/ml)+YDE-043 0.01 uM • 32. PBMC+LPS (5 ug/ml)+YDE-043 0.001 uM
Multiplex assay was used to measure 30 cytokines and chemokines. The 1:2, 1:10 and 1:200 diluted cell supernatant and serial dilution of the standard were dispensed into a 96 well plate at 50 ul/well. Then, the pre-mixed cocktail of antibody-coated magnetic beads was dispensed at 50 ul/well and incubated at room temperature for 2 h in a horizontal orbital microplate shaker at 800±500 rpm. The beads were washed using a magnetic device to prevent loss. The biotin-antibody was dispensed in 50 ul of each well and incubated at room temperature for 1 h in a shaker at 800±500 rpm. After washing, streptavidin-PE was added at 50 ul/well and incubated at room temperature for 30 min in a shaker under the same conditions. Finally, after washing, wash buffer (100 ul/well) was added to the plate and incubated in a shaker for 2 min. The Luminex™ 200 setting were set according to the manufacturer's protocol. The data was calculated with a standard five-parameter logistic nonlinear regression analysis of the data (xPonent software 4.2, USA). The levels of cytokine/chemokine are normalized to the live cell counts (1×10^5 cells/mL) and presented as concentrations per mL (pg/mL or ng/mL).

[1] = PBMC + LPS(5 ug/ml) + YDE043 0.001 uM
[2] = PBMC + LPS(5 ug/ml) + YDE043 0.001 uM, mean
[3] = PBMC + LPS(5 ug/ml) + YDE043 0.01 uM
[4] = PBMC + LPS(5 ug/ml) + YDE043 0.01 uM, mean
[5] = PBMC + LPS(5 ug/ml) + YDE043 0.1 uM
[6] = PBMC + LPS(5 ug/ml) + YDE043 0.1 uM, mean
[7] = PBMC + LPS(5 ug/ml) + YDE043 1 uM
[8] = PBMC + LPS(5 ug/ml) + YDE043 1 uM, mean
[9] = PBMC + LPS(5 ug/ml) + YDE043 10 uM
[10] = PBMC + LPS(5 ug/ml) + YDE043 10 uM, mean
[11] = PBMC + LPS(5 ug/ml) + YDE043 100 uM
[12] = PBMC + LPS(5 ug/ml) + YDE043 100 uM, mean

## CC(C)C[C@H](NC(=O)[C@H](CCC(N)=O)NC(=O)CNC(=O)[C@@H]1C[C@@H](O)CN1)C(=O)NCC(=O)O [YDE-043] (H-[Hyp]GQLG-OH; N-terminus and C-terminus assumed)
[1]
  Concentration: 339.1 pg/mL and 369.6 pg/mL and 357.7 pg/mL
  conc/live cell: 77.1 pg/10^5 and 61.6 pg/10^5 and 77.8 pg/10^5
[2]
  Concentration: 355.5 pg/mL
  conc/live cell: 72.1 pg/10^5
[3]
  Concentration: 352.5 pg/mL and 342.5 pg/mL and 370.4 pg/mL
  conc/live cell: 78.3 pg/10^5 and 51.9 pg/10^5 and 74.1 pg/10^5
[4]
  Concentration: 355.1 pg/mL
  conc/live cell: 68.1 pg/10^5
[5]
  Concentration: 361.4 pg/mL and 329.0 pg/mL and 382.6 pg/mL
  conc/live cell: 72.3 pg/10^5 and 58.8 pg/10^5 and 68.3 pg/10^5
[6]
  Concentration: 357.7 pg/mL
  conc/live cell: 66.5 pg/10^5
[7]
  Concentration: 344.7 pg/mL and 332.4 pg/mL and 338.7 pg/mL
  conc/live cell: 59.4 pg/10^5 and 69.2 pg/10^5 and 63.9 pg/10^5
[8]
  Concentration: 338.6 pg/mL
  conc/live cell: 64.2 pg/10^5
[9]
  Concentration: 357.4 pg/mL and 342.1 pg/mL and 351.0 pg/mL
  conc/live cell: 68.7 pg/10^5 and 63.3 pg/10^5 and 62.7 pg/10^5
[10]
  Concentration: 350.2 pg/mL
  conc/live cell: 64.9 pg/10^5
[11]
  Concentration: 454.5 pg/mL and 414.4 pg/mL
  conc/live cell: 73.3 pg/10^5 and 64.7 pg/10^5
[12]
  Concentration: 434.4 pg/mL
  conc/live cell: 69.0 pg/10^5

— patent publication US20230146455A1, “TREATMENT OF INFLAMMATORY DISEASES WITH PEPTIDES AND PHARMACEUTICAL COMPOSITIONS” (Yuyu Pharma, Inc., priority 2020, published 2023)
